Patent US9315459B2, “Crystalline forms of 4-[2-(4-methylphenylsulfanyl)-phenyl] piperidine” (priority 2006, dated 2016)

Experiments:
[1] = target: T1, human-homomeric 5-HT3A receptors (Homo sapiens, UniProt P46098); assay: Voltage clamp in oocytes expressing human-homomeric 5-HT3A receptors; assay type: cell-based; conditions: agonism at higher concentrations
T1 sequence (P46098 24-478): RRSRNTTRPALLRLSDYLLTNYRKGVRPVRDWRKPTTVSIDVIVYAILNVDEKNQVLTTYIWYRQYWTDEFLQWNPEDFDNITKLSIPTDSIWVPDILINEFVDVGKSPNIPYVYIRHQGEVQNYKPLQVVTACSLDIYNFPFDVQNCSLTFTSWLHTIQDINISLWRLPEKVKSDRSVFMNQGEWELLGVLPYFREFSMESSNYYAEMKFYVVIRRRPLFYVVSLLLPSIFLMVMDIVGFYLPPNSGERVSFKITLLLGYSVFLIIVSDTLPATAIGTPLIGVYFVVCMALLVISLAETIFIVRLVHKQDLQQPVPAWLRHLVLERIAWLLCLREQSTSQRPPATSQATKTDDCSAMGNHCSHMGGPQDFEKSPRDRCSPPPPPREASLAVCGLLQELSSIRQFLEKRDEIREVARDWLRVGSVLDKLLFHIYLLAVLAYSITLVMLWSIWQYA
Protocol: The experiments were carried out as follows. […] Oocytes avoid of the follicle layer were selected and incubated for 24 hours in Modified Barth's Saline buffer [88 mM NaCl, 1 mM KCl, 15 mM HEPES, 2.4 mM NaHCO3, 0.41 mM CaCl2, 0.82 mM MgSO4, 0.3 mM Ca(NO3)2] supplemented with 2 mM sodium pyruvate, 0.1 U/l penicillin and 0.1 μg/l streptomycin. Stage […] oocytes were identified and injected with 12-48 nl of nuclease free water containing 14-50 pg of cRNA coding for human 5-HT3A receptors receptors and incubated at 18° C. until they were used for electrophysiological recordings (1-7 days after injection). […] Cells were impaled with agar plugged 0.5-1 MΩ electrodes containing 3 M KCl and voltage clamped at −90 mV by a GeneClamp 500B amplifier. The oocytes were continuously perfused with Ringer buffer and the drugs were applied in the perfusate.

[2] = target: T2, human alpha1A-7 receptors (Homo sapiens, UniProt P35348); assay: Functional assay, adrenaline evoked release of Ca2+ in CHO cells expressing human alpha1A-7 receptors; assay type: cell-based
T2 construct: expressed in transfected cells; host or cells: CHO cells
T2 sequence (P35348 1-466): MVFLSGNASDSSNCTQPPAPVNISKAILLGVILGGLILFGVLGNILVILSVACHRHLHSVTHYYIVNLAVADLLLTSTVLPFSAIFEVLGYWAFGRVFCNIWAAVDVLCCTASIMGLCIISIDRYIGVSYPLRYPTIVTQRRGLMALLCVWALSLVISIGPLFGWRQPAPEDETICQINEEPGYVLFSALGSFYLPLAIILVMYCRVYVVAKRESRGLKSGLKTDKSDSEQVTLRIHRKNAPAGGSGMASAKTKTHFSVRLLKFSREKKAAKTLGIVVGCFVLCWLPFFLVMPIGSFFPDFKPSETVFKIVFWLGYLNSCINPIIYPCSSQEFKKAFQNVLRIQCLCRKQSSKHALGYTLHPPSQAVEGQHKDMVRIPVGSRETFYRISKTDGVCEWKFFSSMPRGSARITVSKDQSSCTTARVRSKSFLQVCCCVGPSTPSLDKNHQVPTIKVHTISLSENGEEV
Protocol: These experiments were carried out essentially as described below. All cells were cultured in DMEM medium supplemented with 10% BCS, 4 mM L-glutamine (or 2 mM in the case of COS-7), and 100 units/ml penicillin plus 100 μg/ml streptomycin, at 37° C., in 5% CO2. Twenty-four hours prior to assays, CHO cells expressing the human alpha1A-7 receptors were seeded into 384-well black wall microtiter plates coated with poly-D-lysine. […] After excess dye was discarded, cells were washed in assay buffer and layered with a final volume equal to 45 μl/well (or 30 ul/well for antagonist assay). […] Basal fluorescence was monitored in a fluorometric imaging plate reader or FLIPR™ from Molecular Devices (Sunnyvale, Calif.) with an excitation wavelength of 488 nm and an emission range of 500 to 560 nm. Laser excitation energy was adjusted so that basal fluorescence readings were approximately 8,000 relative fluorescent units (RFU). Cells were then stimulated at room temperature with agonists diluted in assay buffer (15 μl), and RFU were measured at 1.5 second intervals over a period of 2.5 min. Maximum change in fluorescence was calculated for each well. Concentration-response curves derived from the maximum change in fluorescence were analyzed by nonlinear regression (Hill equation).

C57/B6 mice = assay: Formalin model of neuropathic pain, time spent licking the injured paw; assay type: in vivo; conditions: summary in words of table 4
Protocol: The irritation caused by the formalin injection elicits a characteristic biphasic behavioural response, as quantified by the amount of time spent licking the injured paw. The first phase (˜0-10 minutes) represents direct chemical irritation and nociception, whereas the second (˜20-30 minutes) is thought to represent pain of neuropathic origin. The two phases are separated by a quiescent period in which behaviour returns to normal. Measuring the amount of time spent licking the injured paw in the two phases assesses the effectiveness of test compounds to reduce the painful stimuli. Eight C57/B6 mice (ca. 25 g) were tested per group. Table 4 below show the amount of time spent licking the injured paw in the two phases, i.e. 0-5 minutes and 20-30 minutes post formalin injection. The amount of compound administered is calculated as the free base.

- Maximal current, % of the maximal current elicited by 5-HT [1]: 70-80%
- Functional profile, adrenaline evoked release of Ca2+ [2]: antagonists
SMILES: Cc1ccc(Sc2ccccc2C2CCNCC2)cc1 [compound I, 4-[2-(4-methylphenylsulfanyl)-phenyl]piperidine]
- Effect in the first phase (direct chemical irritation and nociception) (C57/B6 mice): little effect
- Effect in the second phase (time spent licking paws) (C57/B6 mice): clear and dose dependent decrease
